Data: patent publication US6781015B2, “Aminobenzophenones and photopolymerizable compositions including the same” (Albemarle Corporation, priority 1997, dated 2004)
Several values for one entry are separate records, joined by “and”; a condition that tells them apart may be missing. Equal values may be shown once.

System: Salmonella typhimurium tester strain TA98
Experiment: Salmonella/Mammalian-Microsome Reverse Mutation Screening Assay (Ames Test)
Type: cell-based
Set-up: key to Background lawn: 1 = normal; 2 = slightly reduced; 3 = moderately reduced; 4 = extremely reduced; 5 = absent; 6 = obscured by precipitate; sp = slight precipitate; mp = moderate precipitate (requires hand count); hp = heavy precipitate (requires hand count)
Details: for Ames Test outcome (mutagenicity): tester strain TA98 in the presence of S9 mix
Protocol: Mutagenicity can be measured by a variety of assays. The most commonly used method is the Salmonella/Mammalian-Microsome Reverse Mutation Screening Assay (Ames Test), which commonly uses four or five strains of Salmonella bacteria to detect different types of mutations.
TMMK, TEMK and MEAB were evaluated for the ability to induce reverse mutations at the histidine locus in the genome of a specific Salmonella typhimurium tester strain in the presence of an exogenous metabolic activation system of mammalian microsomal enzymes derived from Aroclor™-induced rat liver (S9). The tester strain used in the mutagenicity assay was Salmonella typhimurium tester strain TA98 with added activation. The assay was conducted using eight doses of the test article, along with the appropriate vehicle and positive controls in the presence of S9 mix (S9 homogenate was purchased from Molecular Toxicology, Inc., Annapolis, Md. 21401, Batch 0646, 43.4 mg of protein per ml). Positive controls were also plated in the absence of S9 mix. All doses of test article, vehicle, and positive controls were plated in triplicate.
The test article TMMK was stored at room temperature. Acetone (CAS# 67-64-1, Fisher Scientific Co., Lot 961140) was used as the vehicle. At 20 mg per ml, which was the most concentrated stock solution which could be prepared, the test article formed a clear, light yellow solution. The test article remained a solution in all succeeding dilutions prepared for the mutagenicity assay. The maximum aliquot of acetone which can be used in the test system is 200 μl. Thus, the maximum concentration which could be tested was 4,000 μg per plate. The test article and vehicle controls were plated using a 200 μl plating aliquot. Positive control articles were plated using 50 μl plating aliquot.
(§1) The test article TEMK was stored at room temperature. Acetone (CAS# 67-64-1, Fisher Scientific Co., Lot 961140) was used as the vehicle. At 100 mg per ml, which was the most concentrated stock solution prepared, the test article formed a clear, yellow solution. The test article remained a solution in all succeeding dilutions prepared for the mutagenicity assay. The test article, vehicle controls and positive control articles were plated using a 50 μl plating aliquot.
as §1, with “MEAB” for “TEMK”, “(CAS#67-64-1,” for “(CAS# 67-64-1,”, “25” for “100”, “clear, light” for “clear,”, “article and” for “article,”, “were plated using a 200 μl plating aliquot. Positive” for “and positive”
The data are presented as individual plate counts along with a mean and standard deviation.

[1] = TA98, rat liver S9, 3.33 μg/plate
[2] = TA98, rat liver S9, 3.33 μg/plate, plates 1-3
[3] = TA98, rat liver S9, 10.0 μg/plate
[4] = TA98, rat liver S9, 10.0 μg/plate, plates 1-3
[5] = TA98, rat liver S9, 33.3 μg/plate
[6] = TA98, rat liver S9, 33.3 μg/plate, plates 1-3
[7] = TA98, rat liver S9, 100 μg/plate
[8] = TA98, rat liver S9, 100 μg/plate, plates 1-3
[9] = TA98, rat liver S9, 333 μg/plate
[10] = TA98, rat liver S9, 333 μg/plate, plates 1-3
[11] = TA98, rat liver S9, 1000 μg/plate
[12] = TA98, rat liver S9, 1000 μg/plate, plates 1-3
[13] = TA98, rat liver S9, 3330 μg/plate
[14] = TA98, rat liver S9, 3330 μg/plate, plates 1-3
[15] = TA98, rat liver S9, 5000 μg/plate
[16] = TA98, rat liver S9, 5000 μg/plate, plates 1-3
[17] = Table 1, TA98, rat liver S9, 3.33 μg/plate
[18] = Table 1, TA98, rat liver S9, 10.0 μg/plate
[19] = Table 1, TA98, rat liver S9, 33.3 μg/plate
[20] = Table 1, TA98, rat liver S9, 100 μg/plate
[21] = Table 1, TA98, rat liver S9, 333 μg/plate
[22] = Table 1, TA98, rat liver S9, 1000 μg/plate
[23] = Table 1, TA98, rat liver S9, 3330 μg/plate
[24] = Table 1, TA98, rat liver S9, 5000 μg/plate
[25] = Table 2 summary, TA98, rat liver S9, 3.33 μg/plate
[26] = Table 2 summary, TA98, rat liver S9, 10.0 μg/plate
[27] = Table 2 summary, TA98, rat liver S9, 33.3 μg/plate
[28] = Table 2 summary, TA98, rat liver S9, 100 μg/plate
[29] = Table 2 summary, TA98, rat liver S9, 333 μg/plate
[30] = Table 2 summary, TA98, rat liver S9, 1000 μg/plate
[31] = Table 2 summary, TA98, rat liver S9, 3330 μg/plate
[32] = Table 2 summary, TA98, rat liver S9, 5000 μg/plate

SMILES | Mean revertants per plate [1] [revertants per plate] | Individual plate counts, revertants per plate [2] | Mean revertants per plate [3] [revertants per plate] | Individual plate counts, revertants per plate [4] | Mean revertants per plate [5] [revertants per plate] | Individual plate counts, revertants per plate [6] | Mean revertants per plate [7] [revertants per plate] | Individual plate counts, revertants per plate [8] | Mean revertants per plate [9] [revertants per plate] | Individual plate counts, revertants per plate [10] | Mean revertants per plate [11] [revertants per plate] | Individual plate counts, revertants per plate [12] | Mean revertants per plate [13] [revertants per plate] | Individual plate counts, revertants per plate [14] | Mean revertants per plate [15] [revertants per plate] | Individual plate counts, revertants per plate [16] | Background lawn [17] | Background lawn [18] | Background lawn [19] | Background lawn [20] | also measured
Nc1ccc2cc3ccccc3cc2c1 [2-aminoanthracene] | – | – | – | – | – | – | – | – | – | – | – | – | – | – | – | – | – | – | – | – | Background lawn (Table 1, positive control, TA98, rat liver S9, 2.5 μg/plate, in the TMMK, TEMK and MEAB runs): 1; Background lawn (Table 2 summary, positive control, TA98, rat liver S9, 2 5 μg/plate, in the TMMK, TEMK and MEAB runs): 1; Individual plate counts, revertants per plate (positive control, TA98, rat liver S9, 2.5 μg/plate, plates 1-3, in the TMMK, TEMK and MEAB runs): 1053 revertants per plate and 1225 revertants per plate and 1226 revertants per plate and 920 revertants per plate and 932 revertants per plate and 1264 revertants per plate and 1032 revertants per plate and 1133 revertants per plate and 1196 revertants per plate; Mean revertants per plate (positive control, TA98, rat liver S9, 2 5 μg/plate, in the TMMK, TEMK and MEAB runs): 968 revertants per plate and 1143 revertants per plate and 1216 revertants per plate
CCN(C)c1ccc(C(=O)c2ccc(N(C)CC)cc2)cc1 [MEAB, 4,4′-bis(methylethylamino)benzophenone] | 19 | 21 revertants per plate and 22 revertants per plate and 13 revertants per plate | 21 | 28 revertants per plate and 11 revertants per plate and 25 revertants per plate | 24 | 25 revertants per plate and 24 revertants per plate (2×) | 19 | 18 revertants per plate and 20 revertants per plate (2×) | 24 | 31 revertants per plate and 19 revertants per plate and 21 revertants per plate | 27 | 23 revertants per plate and 21 revertants per plate and 36 revertants per plate | 19 | 14 revertants per plate and 17 revertants per plate and 27 revertants per plate | 24 | 23 revertants per plate (2×) and 27 revertants per plate | 1 | 1 | 1 | 1 sp | Background lawn [21]: 1 mp; Background lawn [22]: 1 mp; Background lawn [23]: 1 hp; Background lawn [24]: 1 hp; Background lawn [25]: 1; Background lawn [26]: 1; Background lawn [27]: 1; Background lawn [28]: 1 sp; Background lawn [29]: 1 mp; Background lawn [30]: 1 mp; Background lawn [31]: 1 hp; Background lawn [32]: 1 hp; Ames Test outcome (mutagenicity): did not cause a positive increase
CCN(CC)c1ccc(C(=O)c2ccc(N(CC)CC)cc2)cc1 [TEMK, 4,4′-bis(diethylamino)benzophenone] | 25 | 22 revertants per plate (2×) and 30 revertants per plate | 25 | 30 revertants per plate and 24 revertants per plate and 20 revertants per plate | 18 | 13 revertants per plate and 23 revertants per plate and 19 revertants per plate | 26 | 28 revertants per plate and 26 revertants per plate and 24 revertants per plate | 19 | 20 revertants per plate and 17 revertants per plate and 19 revertants per plate | 24 | 32 revertants per plate and 23 revertants per plate and 17 revertants per plate | 22 | 27 revertants per plate and 15 revertants per plate and 25 revertants per plate | 22 | 27 revertants per plate and 19 revertants per plate (2×) | 1 | 1 | 1 | 1 | Background lawn [21]: 1 sp; Background lawn [22]: 1 mp; Background lawn [23]: 1 mp; Background lawn [24]: 1 mp; Background lawn [25]: 1; Background lawn [26]: 1; Background lawn [27]: 1; Background lawn [28]: 1; Background lawn [29]: 1 sp; Background lawn [30]: 1 mp; Background lawn [31]: 1 mp; Background lawn [32]: 1 mp; Ames Test outcome (mutagenicity): did not cause a positive increase
